Measured values from US8629144B2, “Polymorphic and hydrate forms, salts and process for preparing 6-{difluoro[6-(1-methyl-1H-pyrazol-4-yl)[1,2,4]triazolo[4,3-b]pyridazin-3-yl]methyl}quinoline” (Janssen Pharmaceutica NV, priority 2007, dated 2014).
Values after ≈ are worked out from the molar mass of the structure shown. Like-named read-outs stand apart in the source and are kept apart here.

Legend:
Assay type in all cases: physicochemical
[1] = Aqueous solubility of Forms I, III and hydrate at different pH
Protocol: Solubility of polymorph Forms I and III and the hydrate form of the compound of formula (I) was tested in aqueous conditions at different pH values.

[2] = Adsorption and desorption of water at 25° C. (Form I)
Protocol: Adsorption and desorption of water at 25° C. at different conditions of relative humidity was investigated on about 10 mg Form I of compound of formula (I), by registering the weight change as a function of relative humidity.
During an initial drying step a weight loss of 0.05% was registered.

[3] = Crystallographic stability of Form I on storage (TGA, DSC, XRPD, IR); design: key to IR: ±Ref: contain some small extra signals
Protocol: The stability of the crystal structure of polymorph Form I of the compound (I) was studied after storage of the compound in open conditions for a period of six weeks at room temperature (RT) under <5%, 56% and 75% relative humidity (RH) at 50° C., and at 40° C. and 75% RH.
The samples were analysed by TGA, DSC, XRPD and IR spectroscopy.

[4] = Chemical stability of Form I on storage (HPLC, visual inspection)
Protocol: Chemical stability of Form I was tested in different open storage conditions for periods of 1, 4 and 8 weeks: 40° C./75% RH; 50° C.; RT/<5% RH; RT/56% RH; RT/75% RH and 0.3da ICH high intensity light. The compound was analysed after storage by HPLC and by visual inspection.

[5] = Slurry conversion on mixtures of Form III and Form I (XRPD); design: key to Polymorphic composition (XRPD) after slurry: Form I; *: low amount of product; conditions: for Polymorphic composition (XRPD) after slurry: overnight
Protocol: 30 mg of mixture of Form III and Form I and 0.25 ml solvent (2-propanol; or ethanol/water (8/2, v/v)) were placed in a vial. For each solvent, 2 vials were prepared and stored each at different temperatures (RT, 70° C.) overnight. After storage, the slurry was spread on a paper filter, the solid fractions were collected and dried 2 hours at RT. The polymorphic composition was measured using XRPD.

[6] = Stability of the hydrate form in aqueous suspension (XRPD, SEM); conditions: aqueous suspension 16 mg/ml
Protocol: Aqueous suspension of the compound of formula (I) 16 mg/ml was stored at about 4° C. up to 9 days. Samples were taken after 1, 2 and 9 days of storage. The suspensions were spread over a paper filter and dried at room temperature for 2 hours. The obtained materials were analysed by XRPD.
Moreover, the hydrate remained stable in the aqueous medium for at least 9 days (XRD not substantially changed).

[7] = Thermal conversions in DSC oven (XRPD)
Protocol: Form III or hydrate form were thermally treated in a DSC oven (heating rate 10° C./min) up to selected temperatures (isotherm for 1 min) using an open sample pan. The selected temperatures are for Form III: 110° C. and 170° C.; and for hydrate form: 70° C., 110° C. and 170° C. The polymorphic composition of the obtained fractions was measured by XRPD. Table 12 summarises XRPD patterns in DSC treated Form III. Table 13 summarises XRPD patterns in DSC treated hydrate

[8] = six weeks open storage, 40° C./75% RH
[9] = six weeks open storage, RT/56% RH
[10] = six weeks open storage, RT/75% RH
[11] = six weeks open storage, RT/<5% RH

Cn1cc(-c2ccc3nnc(C(F)(F)c4ccc5ncccc5c4)n3n2)cn1 [Form I, 6-{difluoro[6-(1-methyl-1H-pyrazol-4-yl)[1,2,4]triazolo[4,3-b]pyridazin-3-yl]methyl}quinoline] showed a Solubility ([1]; aqueous medium, simulated gastric fluid, thermodynamic from solid, 0.01 HCl, read-out: Solubility) of 100 µg/mL (≈ 265 µM), a Solubility ([1]; aqueous medium, simulated gastric fluid, thermodynamic from solid, 0.1 HCl, read-out: Solubility) of 1300 µg/mL (≈ 3450 µM) and a Solubility ([1]; pH2) of 430 µg/mL (≈ 1140 µM). The Solubility ([1]; pH4) was 5 µg/mL (≈ 13.3 µM), the Solubility ([1]; pH6) was 3 µg/mL (≈ 7.95 µM) and the Solubility ([1]; pH8) was 4 µg/mL (≈ 10.6 µM). The Solubility ([1]; pH10) was 3 µg/mL (≈ 7.95 µM), the “Weight loss during initial drying step” value ([2]; about 10 mg) was 0.05% and the “Water adsorbed by dry product” value ([2]; depending on the atmospheric humidity) was “up to 0.5%”. The Hygroscopic behaviour ([2]; different relative humidity) was “no hygroscopic behaviour”, the “DSC Max” value ([3]; 0 days) was 201.0 °C and the “DSC ΔH” value ([3]; 0 days) was 101 J/g. For the same compound, the IR ([3]; 0 days) was “Cryst., Ref”, the TGA <100° C. ([3]; 0 days) was 0.12% and the TGA <240° C. ([3]; 0 days) was 0.36%. For the same compound, the XRD ([3]; 0 days) was “Cryst., Ref”, the Crystallographic stability ([3]; after storage under the different conditions) was “crystallographically stable” and the “DSC Max” value [3, 8] was 200.5 °C. The “DSC ΔH” value [3, 8] was 119 J/g, the IR [3, 8] was “~Ref (identical with Form I reference)” and the TGA <100° C. [3, 8] was 0.33%. The TGA <240° C. [3, 8] was 0.48%, the XRD [3, 8] was “~Ref (identical with Form I reference)” and the IR ([3]; six weeks open storage, 50° C.) was “~Ref (identical with Form I reference)”. The TGA <100° C. ([3]; six weeks open storage, 50° C.) was 0.31%, the TGA <240° C. ([3]; six weeks open storage, 50° C.) was 0.57% and the XRD ([3]; six weeks open storage, 50° C.) was “~Ref (identical with Form I reference)”. For the same compound, the “DSC Max” value [3, 9] was 200.4 °C, the “DSC ΔH” value [3, 9] was 120 J/g and the IR [3, 9] was “±Ref”. The TGA <100° C. [3, 9] was 0.58%, the TGA <240° C. [3, 9] was 0.8% and the XRD [3, 9] was “~Ref (identical with Form I reference)”. For the same compound, the “DSC Max” value [3, 10] was 200.1 °C, the “DSC ΔH” value [3, 10] was 121 J/g and the IR [3, 10] was “±Ref”. For the same compound, the TGA <100° C. [3, 10] was 0.25%, the TGA <240° C. [3, 10] was 0.57% and the XRD [3, 10] was “~Ref (identical with Form I reference)”. The “DSC Max” value [3, 11] was 200.1 °C, the “DSC ΔH” value [3, 11] was 124 J/g and the IR [3, 11] was “~Ref (identical with Form I reference)”. For the same compound, the TGA <100° C. [3, 11] was 0.74%, the TGA <240° C. [3, 11] was 0.75% and the XRD [3, 11] was “~Ref (identical with Form I reference)”. The “HPLC Sum of impurities” value ([4]; 0.3da ICH light, 1 w) was 0.55 w/w %, the Appearance ([4]; 0.3da ICH light, 1 week) was “slightly yellow” and the “HPLC Sum of impurities” value ([4]; 40° C./75% RH, 1 w) was 0.51 w/w %. The Appearance ([4]; 40° C./75% RH, 1 week) was “slightly yellow”, the “HPLC Sum of impurities” value ([4]; 40° C./75% RH, 4 w) was 0.66 w/w % and the Appearance ([4]; 40° C./75% RH, 4 weeks) was “slightly yellow”. The “HPLC Sum of impurities” value ([4]; 40° C./75% RH, 8 w) was 0.54 w/w %, the Appearance ([4]; 40° C./75% RH, 8 weeks) was “slightly yellow” and the “HPLC Sum of impurities” value ([4]; 50° C., 1 w) was 0.56 w/w %. For the same compound, the Appearance ([4]; 50° C., 1 week) was “slightly yellow”, the “HPLC Sum of impurities” value ([4]; 50° C., 4 w) was 0.59 w/w % and the Appearance ([4]; 50° C., 4 weeks) was “slightly yellow”. The “HPLC Sum of impurities” value ([4]; 50° C., 8 w) was 0.54 w/w %, the Appearance ([4]; 50° C., 8 weeks) was “slightly yellow” and the “HPLC Sum of impurities” value ([4]; RT/56% RH, 4 w) was 0.53 w/w %. The Appearance ([4]; RT/56% RH, 4 weeks) was “slightly yellow”, the “HPLC Sum of impurities” value ([4]; RT/56% RH, 8 w) was 0.53 w/w % and the Appearance ([4]; RT/56% RH, 8 weeks) was “slightly yellow”. The “HPLC Sum of impurities” value ([4]; RT/75% RH, 4 w) was 0.53 w/w %, the Appearance ([4]; RT/75% RH, 4 weeks) was “slightly yellow” and the “HPLC Sum of impurities” value ([4]; RT/75% RH, 8 w) was 0.77 w/w %. The Appearance ([4]; RT/75% RH, 8 weeks) was “slightly yellow”, the “HPLC Sum of impurities” value ([4]; RT/<5% RH, 4 w) was 0.62 w/w % and the Appearance ([4]; RT/<5% RH, 4 weeks) was “slightly yellow”. For the same compound, the “HPLC Sum of impurities” value ([4]; RT/<5% RH, 8 w) was 0.53 w/w %, the Appearance ([4]; RT/<5% RH, 8 weeks) was “slightly yellow” and the “HPLC Sum of impurities” value ([4]; Reference, 1 w) was 0.54 w/w %. The Appearance ([4]; Reference, 1 week) was “slightly yellow”, the Chemical stability ([4]; all investigated conditions) was “chemically stable” and the Relative polymorph stability ([5]; from RT up to 70° C.) was “most stable polymorph”.
In the case of Cn1cc(-c2ccc3nnc(C(F)(F)c4ccc5ncccc5c4)n3n2)cn1 [mixture of Form III and Form I], the “XRD patterns of the stored suspensions” value ([6]; 4° C., 1 day, 2 days and 9 days) is reported as “compatible with those of the hydrate form”, the “Polymorphic composition (XRPD) after slurry” value (shortened to “Polymorphic composition (XRPD)”) ([5]; 2-propanol, 70° C.) is reported as “I” and the “Polymorphic composition (XRPD)” value ([5]; 2-propanol, RT) is reported as “I”. The “Polymorphic composition (XRPD)” value ([5]; ethanol/water (8/2, v/v), 70° C., low amount of product) was “I*” and the “Polymorphic composition (XRPD)” value ([5]; ethanol/water (8/2, v/v), RT) was “I”.
Compound Cn1cc(-c2ccc3nnc(C(F)(F)c4ccc5ncccc5c4)n3n2)cn1 [hydrate, 6-{difluoro[6-(1-methyl-1H-pyrazol-4-yl)[1,2,4]triazolo[4,3-b]pyridazin-3-yl]methyl}quinoline] has a Solubility ([1]; 0.01 HCl) of 56 µg/mL, a Solubility ([1]; 0.1 HCl) of 810 µg/mL and a Solubility ([1]; pH2) of 65 µg/mL. For the same compound, the Solubility ([1]; pH4) was 2 µg/mL, the Solubility ([1]; pH6) was 1 µg/mL and the Solubility ([1]; pH8) was 1 µg/mL. For the same compound, the Solubility ([1]; pH10) was 1 µg/mL, the “Time hydrate remained stable in the aqueous medium (XRD not substantially changed)” value ([6]; about 4° C.) was “at least 9 days” and the XRPD measured composition ([7]; DSC treated hydrate, up to 70° C.) was “hydrate + Form III”. For the same compound, the XRPD measured composition ([7]; DSC treated hydrate, up to 110° C.) was “Form III”, the XRPD measured composition ([7]; DSC treated hydrate, up to 170° C.) was “mainly Form I” and the XRPD measured composition ([7]; starting hydrate) was “hydrate”.
